Results on 18 compounds are retold here after patent US8513232B2, “Substituted spirocyclic piperidine derivatives as histamine-3 (H3) receptor ligands” (Cephalon, Inc., priority 2008, dated 2013).

Each structure is given as a SMILES string. Like-named read-outs stand apart in the source and are kept apart here.

In one series the target is T1, human H3 receptor (Homo sapiens, UniProt Q9Y5N1).
T1 construct: expressed in transfected cells
The experiment in a line: Human H3 radioligand binding ([3H]-N-alpha-methylhistamine, SPA). Put shortly: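 Compounds (0.01 nM-30 μM) competed with approximately 1 nM [3H]-N-alpha-methylhistamine for human H3 receptor in membranes of stably transfected CHO cells, 10 μg protein per well, in Tris-HCl pH 7.4/MgCl2/BSA buffer for 4 h at room temperature. Bound radioligand measured by scintillation proximity; 10 μM clobenpropit gave non-specific binding.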

The target of series [1] is T2, rat histamine H3 receptor (Rattus norvegicus, UniProt Q9QYN8).
T2 construct: encoding the entire 445-amino-acid rat histamine H3 receptor; expressed in transfected cells; membrane preparation
T2 sequence (Q9QYN8 whole entry): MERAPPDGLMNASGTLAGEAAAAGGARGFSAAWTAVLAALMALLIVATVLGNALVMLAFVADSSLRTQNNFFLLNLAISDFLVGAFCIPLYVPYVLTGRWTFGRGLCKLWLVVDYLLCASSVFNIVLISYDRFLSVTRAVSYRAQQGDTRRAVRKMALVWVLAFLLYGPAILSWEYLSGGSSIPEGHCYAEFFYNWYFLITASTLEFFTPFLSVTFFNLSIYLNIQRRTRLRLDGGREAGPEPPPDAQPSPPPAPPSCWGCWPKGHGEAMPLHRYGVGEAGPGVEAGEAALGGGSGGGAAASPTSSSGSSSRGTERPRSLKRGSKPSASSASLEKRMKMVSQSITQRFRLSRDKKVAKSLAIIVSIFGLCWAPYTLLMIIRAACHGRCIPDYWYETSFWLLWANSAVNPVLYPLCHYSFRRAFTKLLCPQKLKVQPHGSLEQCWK
The experiment in a line: Rat H3 radioligand binding ([3H]-N-alpha-methylhistamine, SPA). The method, boiled down:
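SPA-bead binding assay using [3H]-N-alpha-methylhistamine (approximately 1 nM final) with test compounds from 0.01 nM to 30 μM. Rat H3 receptor membranes came from stably transfected CHO-A3 cells; incubation ran 4 h at room temperature, in the dark, in Tris pH 7.4 buffer with MgCl2 and BSA. Clobenpropit (10 μM) gave non-specific binding.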

[2] abbreviates: Table A, human H3 binding, read-out: Human Ki.
Setting [3] is: Table A, rat H3 binding, read-out: Rat Ki.
Setting [4] is: human H3 binding, Table D, read-out: Human H3 Ki.
Where [5] appears, read: rat H3 binding, Table D, read-out: Rat H3 Ki.
Setting [6] is: Human H3 binding, Table B, Examples 136-362, read-out: hum H3 binding Ki.
[7] abbreviates: Rat H3 binding, Table B, Examples 136-362, read-out: rat H3 binding Ki.

T1 sequence (Q9Y5N1 whole entry): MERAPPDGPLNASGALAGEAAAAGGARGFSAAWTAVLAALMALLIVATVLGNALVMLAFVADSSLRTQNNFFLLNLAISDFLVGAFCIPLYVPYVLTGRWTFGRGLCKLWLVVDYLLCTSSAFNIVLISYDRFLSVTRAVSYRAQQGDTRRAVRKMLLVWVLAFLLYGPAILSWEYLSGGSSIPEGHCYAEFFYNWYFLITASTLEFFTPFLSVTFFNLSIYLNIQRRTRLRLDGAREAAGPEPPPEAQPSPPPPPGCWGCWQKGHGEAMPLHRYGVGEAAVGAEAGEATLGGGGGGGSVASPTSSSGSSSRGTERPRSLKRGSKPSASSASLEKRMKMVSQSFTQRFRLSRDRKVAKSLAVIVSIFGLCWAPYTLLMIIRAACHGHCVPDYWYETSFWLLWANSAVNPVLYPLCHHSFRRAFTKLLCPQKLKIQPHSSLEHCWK

`O=C(NC[C@H]1CCCO1)c1ccc(-c2ccc3c(c2)COC2(CCN(C4CCC4)CC2)O3)cc1` [Example 67] came in with a melting point of 184 to 186 °C. Further, on human H3 receptor (setting [2]), the Ki is < 200 nM. Moreover, in series [1] (setting [3]), the Ki was < 200 nM.

Consider `O=C(CCc1ccc2c(c1)COC1(CCN(C3CCC3)CC1)O2)N1CCOCC1` [Example 660], for which the melting point lay within 71 to 73 °C. Further, on human H3 receptor (setting [4]), the Ki is < 200 nM. In addition, the Ki in series [1] (setting [5]) is < 200 nM.

With `CC(C)Oc1cc(-c2ccc3c(c2)COC2(CCN(C4CCC4)CC2)O3)c(Cl)cn1` [Example 780], the melting point was in the range of 131 to 132 °C. Moreover, the Ki at human H3 receptor (setting [4]) was < 200 nM. The Ki in series [1] (setting [5]) is < 200 nM.

`COc1ccc(-c2ccc3c(c2)COC2(CCN(C4COC4)CC2)O3)cn1` [Example 713] had a melting point of 162 to 164 °C. The Ki at human H3 receptor (setting [4]) is 200 to 1000 nM. Also, the Ki in series [1] (setting [5]) is > 1000 nM.

For the compound `CC(C)C(=O)N1CCN(c2ccc3c(c2)CCC2(CCN(C4CCC4)CC2)O3)CC1` [Example 381], the melting point was in the range of 173 to 175 °C. Moreover, the Ki on human H3 receptor (Table C, human H3 binding, read-out: Human H3 Ki) is < 200 nM. Moreover, in series [1] (Table C, rat H3 binding, read-out: Rat H3 Ki), the Ki is < 200 nM.

Compound `c1ccc(Nc2ccc3c(c2)OC2(CCN(C4CCC4)CC2)O3)cc1` [Example 170] registered a melting point of 238 to 240 °C. For the same compound, the Ki at human H3 receptor (setting [6]) is < 200 nM. Besides, the Ki in series [1] (setting [7]) is < 200 nM.

Take `Cc1nnc(C2CCN(c3ccc4c(c3)COC3(CCN(C5CCC5)CC3)O4)CC2)o1` [Example 657]: the melting point lay within 75.5 to 77.8 °C. Moreover, the Ki on human H3 receptor (setting [4]) was < 200 nM. Also, the Ki in series [1] (setting [5]) was < 200 nM.

On to `O=C(Nc1ccc2c(c1)COC1(CCN(C3CCC3)CC1)O2)c1ccncc1F` [Example 277], for which the melting point fell in the range of 168 to 169 °C. Moreover, the Ki at human H3 receptor (setting [6]) was < 200 nM. In series [1] (setting [7]), the Ki was < 200 nM.

For the compound `CNC(=O)c1ccc(-c2ccc3c(c2)CCC2(CCN(C4CCC4)CC2)O3)cc1Cl` [Example 232], the melting point came to 144.2 °C. Further, the Ki at human H3 receptor (setting [6]) is < 200 nM. Besides, the Ki in series [1] (setting [7]) was < 200 nM.

`OC(c1ccc2c(c1)COC1(CCN(C3CCC3)CC1)O2)c1cscn1` (stereo not drawn) [Example 697] registered a melting point of 63 to 68 °C. At human H3 receptor (setting [4]), the Ki was < 200 nM. Besides, the Ki in series [1] (setting [5]) was < 200 nM.

As for `CCS(=O)(=O)c1ccc(-c2ccc3c(c2)COC2(CCN(C4CCC4)CC2)O3)cc1Cl` [Example 625], the melting point lay within 157 to 159 °C. On human H3 receptor (setting [4]), the Ki was < 200 nM. Further, in series [1] (setting [5]), the Ki is < 200 nM.

On to `Cc1ccc(C#N)c(Nc2ccc3c(c2)COC2(CCN(C4CCC4)CC2)O3)n1` [Example 236], for which the melting point lay in the range of 56 to 58 °C. Further, the Ki on human H3 receptor (setting [6]) is < 200 nM. Besides, the Ki in series [1] (setting [7]) is < 200 nM.

Regarding `CNS(=O)(=O)c1ccc(-c2ccc3c(c2)COC2(CCN(C4CCC4)CC2)O3)cc1Cl` [Example 620], the melting point is 127 to 129 °C. In addition, at human H3 receptor (setting [4]), the Ki is < 200 nM. Also, the Ki in series [1] (setting [5]) is < 200 nM.

As to `O=C(c1ccc(-c2ccc3c(c2)CCC2(CCN(C4CCC4)CC2)O3)cc1)N1CCC[C@H](O)C1` [Example 212], the melting point lay in the range of 82 to 83.3 °C. The Ki on human H3 receptor (setting [6]) was < 200 nM. In series [1] (setting [7]), the inhibitory constant (Ki) is < 200 nM.

As to `O=c1ccc(-c2ccc3c(c2)COC2(CCN(C4CCC4)CC2)O3)cn1CC(F)(F)F` [Example 710], the melting point fell in the range of 158 to 160 °C. For the same compound, on human H3 receptor (setting [4]), the Ki was < 200 nM. Also, the Ki in series [1] (setting [5]) is < 200 nM.

The compound `Fc1cncc(-c2ccc3c(c2)COC2(CCN(C4CCC4)CC2)O3)c1` [Example 4] gave a melting point of 140 to 145 °C. For the same compound, the Ki at human H3 receptor (setting [2]) was < 200 nM. In addition, in series [1] (setting [3]), the Ki was < 200 nM.

Regarding `O=S(=O)(c1ccccc1)C1CCN(c2ccc3c(c2)COC2(CCN(C4CCC4)CC2)O3)CC1` [Example 583], the melting point fell in the range of 78.4 to 80.2 °C. Moreover, at human H3 receptor (setting [4]), the Ki was < 200 nM. The Ki in series [1] (setting [5]) was < 200 nM.

The compound `COCCNC(=O)c1ccc(-c2ccc3c(c2)CCC2(CCN(C4CCC4)C2)O3)cc1F` (stereo not drawn) [Example 337] registered a melting point of 58 to 60 °C. At human H3 receptor (setting [6]), the Ki was < 200 nM. The Ki in series [1] (setting [7]) is < 200 nM.

One may read the Ki as a measure of affinity in units of concentration, obtained from inhibition or displacement. Usually melting point stands for the temperature, or range, at which the solid turns liquid.
